Reference: patent US9169496B2, “Method for the enzymatic production of butadiene” (Scientist of Fortune, S.A., priority 2011, dated 2015)

Test system: 4-methyl-5-(2-hydroxyethyl)thiazole kinase from E. coli
Test: Kinetic parameters of crotyl alcohol phosphorylation (spectrophotometric assay of Example 2)
Assay type: biochemical
Details: crotyl alcohol phosphorylation by purified E. coli kinase
Description: The release of ADP that is associated with crotyl alcohol phosphorylation was quantified using the pyruvate kinase/lactate dehydrogenase coupled assay (FIG. 5). The purified 4-methyl-5-(2-hydroxyethyl)thiazole kinases from Escherichia coli (SEQ ID NO:2), Bacillus subtilis (SEQ ID NO:1), Rhizobium leguminosarum (SEQ ID NO:3) were evaluated for their ability to phosphorylate crotyl alcohol releasing ADP. The studied enzymatic reaction was carried out under the following conditions at 37° C.: • 50 mM Tris-HCl pH 7.5 • 10 mM MgCl2 • 100 mM KCl • 5 mM ATP • 0.4 mM NADH • 1 mM Phosphoenolpyruvate • 3 U/ml Lactate dehydrogenase • 1.5 U/ml Pyruvate kinase • 50 mM crotyl alcohol, mixture cis and trans • The pH was adjusted to 7.5
Each assay was started by addition of a particular enzyme at a concentration 0.05 mg/ml and the disappearance of NADH was monitored by following the absorbance at 340 nm.
Kinetic parameters of crotyl alcohol phosphorylation were determined using the spectrophotometric assay described in Example 2.

SMILES	Km
C/C=C/CO [Trans crotyl alcohol]	30 mM
C/C=C\CO [Cis crotyl alcohol]	13.6 mM
